Tested on: E. coli ATCC 25922
Experiment: Systemic septicemia infection mouse model
Format: in vivo, BALB/c mice
Conditions: 10 mg/kg IP once (1 h post-infection); n = 5
Method: All animal studies were performed at the State Research Center for Applied Microbiology & Biotechnology (SRCAMB) in Obolensk (Russia), approved by the Institutional Bioethics Committee of the SRCAMB (Animal Research Protocol #VP-2022/1) and performed according to the Russian Federal rules and Directive 2010/63/EU of the European Parliament and of the Council. Experiments were performed with female eight- to ten-week-old BALB/c mice (“Andreevka” laboratory animal nursery FMBA, Russia). The animals were housed in groups of 5 in polycarbonate cages, and the following housing conditions were used: 12/12 h dark/light cycle, ambient temperature of 20 ÷ 22 °C, 50% humidity. Food and water were provided ad libitum. In vivo efficacy of rumicidins was tested in the mouse septicemia model induced by E. coli ATCC 25922. Mice were infected with 0.5 mL of bacterial suspension (1 × 10^6 CFU per animal) in saline supplemented with 2.5% mucin (w/v) via intraperitoneal (IP) injection. A total of 4 groups with 5 animals were used. […] The second group received saline (as a vehicle control) and administered IP once (1 h post-infection). Two other groups received rumicidin-1 or rumicidin-3 each administered IP three times (1, 4, and 8 h post-infection) at a dose of 10 mg/kg or of 5 mg/kg, respectively. Survival was monitored for 7 days. After that survived animals were euthanized by CO2 asphyxiation. […]

## O=C(O)c1cn(C2CC2)c2cc(N3CCNCC3)c(F)cc2c1=O [Ciprofloxacin]
  survival: survival of all mice

Reference: paper PMC11484942, “Rumicidins are a family of mammalian host-defense peptides plugging the 70S ribosome exit tunnel” (Nature Communications, 2024)
